This note sets out measurements from patent US20230158025A1 (UNIVERSITY OF UTAH RESEARCH FOUNDATION, priority 2020, published 2023).

Where two headings read alike, the source gives them in different places.

One series deals with recombinant mouse GALK1 (Mus musculus, UniProt Q9R0N0). The series can be described thus: mGALK1 biochemical activity assay (Kinase-Glo Plus, ATP depletion). In a few lines: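 Recombinant GALK1 (5 nM) with 100 μM galactose; GALK1 turnover read as ATP depletion by Kinase-Glo Plus luminescence. Reaction ran 1 h at room temperature before detection reagent was added.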
(Kinase-Glo measures the ATP left after a reaction by luminescence.)

The next series has as its target recombinant human GALK1 (Homo sapiens, UniProt P51570). As to the kind of experiment: hGALK1 biochemical activity assay (Kinase-Glo Plus, ATP depletion). In a few lines: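 Turnover is measured as ATP depletion by Kinase-Glo Plus luminescence after a 1 h room-temperature reaction. Compounds span 11 concentrations, 57.4 μM–0.97 nM, in final 20 mM HEPES pH 8.0 with 5 mM MgCl2. The substrate solution held 35 μM ATP; the added solution held 5 nM human or mouse GALK1 and 100 μM galactose.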

The nature of another series: PAMPA permeability. The note with it: PAMPA.
Series [1] is described as follows: rat microsomal stability (RLM). To be noted: microsomal stability half-life.
The nature of series [2]: aqueous kinetic solubility. To be noted: aqueous kinetic solubility.
Where [3] appears, read: Tables 2-15, 35 μM ATP, 100 μM galactose, 1 h, bracketed figure after some values is undefined and not reported, read-out: mGALK IC50.
Setting [4] is: recombinant mouse GALK1, Kinase-Glo Plus ATP depletion, read-out: mGALK.
The mark [5] stands for this setting: Tables 2-15, 35 μM ATP, 100 μM galactose, 1 h, bracketed figure after some values (e.g. −1.2) is undefined and not reported, read-out: hGALK IC50.
[6] abbreviates: recombinant human GALK1, Kinase-Glo Plus ATP depletion, read-out: hGALK.

Chain of recombinant mouse GALK1 (Q9R0N0 whole entry): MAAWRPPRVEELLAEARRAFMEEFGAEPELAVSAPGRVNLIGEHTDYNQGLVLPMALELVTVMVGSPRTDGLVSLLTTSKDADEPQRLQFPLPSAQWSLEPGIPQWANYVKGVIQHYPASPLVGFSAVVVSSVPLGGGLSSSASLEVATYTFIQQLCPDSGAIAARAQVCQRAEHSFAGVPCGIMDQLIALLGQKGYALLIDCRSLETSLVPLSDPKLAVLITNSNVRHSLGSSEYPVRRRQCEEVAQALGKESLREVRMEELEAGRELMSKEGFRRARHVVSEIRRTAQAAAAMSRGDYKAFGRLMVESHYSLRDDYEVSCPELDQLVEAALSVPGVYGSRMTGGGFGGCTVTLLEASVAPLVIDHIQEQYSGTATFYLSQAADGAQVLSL
Chain of recombinant human GALK1 (P51570 whole entry): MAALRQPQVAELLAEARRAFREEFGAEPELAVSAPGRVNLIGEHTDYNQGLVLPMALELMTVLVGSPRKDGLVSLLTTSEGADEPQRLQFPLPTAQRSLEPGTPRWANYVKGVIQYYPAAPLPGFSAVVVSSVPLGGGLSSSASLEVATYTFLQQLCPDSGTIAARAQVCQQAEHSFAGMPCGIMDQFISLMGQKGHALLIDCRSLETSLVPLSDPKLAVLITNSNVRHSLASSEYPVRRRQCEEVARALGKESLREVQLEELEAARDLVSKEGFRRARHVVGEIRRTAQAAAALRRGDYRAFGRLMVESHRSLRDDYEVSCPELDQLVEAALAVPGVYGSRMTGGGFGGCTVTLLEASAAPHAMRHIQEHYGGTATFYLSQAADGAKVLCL

What is called Papp is the rate of passage across a membrane or cell layer, normalised by area and donor concentration. Low readings indicate slow passage, high ones fast passage. Consider `CC1=C(C(=O)Nc2ccc(N3CCNCC3)cc2)C(c2ccccc2Cl)N=C(Nc2nc3ccccc3o2)N1` (centres unmarked) [Compound 190, 2-(benzo[d]oxazol-2-ylamino)-4-(2-chlorophenyl)-6-methyl-N-(4-(piperazin-1-yl)phenyl)-1,4-dihydropyrimidine-5-carboxamide], for which the IC50 was 48.5 µM on recombinant mouse GALK1 (setting [3]), 48.5 µM on recombinant mouse GALK1 (setting [4]), 68.5 µM at recombinant human GALK1 (setting [5]) and 68.5 µM at recombinant human GALK1 (setting [6]). The apparent permeability coefficient (Papp) in “PAMPA permeability” (Perm. (1 × 10^−6 cm/sec)) was found to be 894 ×10⁻⁶ cm/s. The “Metab. Stabil. (m)” value in series [1] was 8.634 m. Also, the “Sol.” value in series [2] is 2.416 µg/mL.
`CC1=C(C(=O)Nc2ncc(CO)s2)C(c2ccccc2Cl)N=C(Nc2nc3ccccc3o2)N1` (centres unmarked) [Compound 193, 2-(benzo[d]oxazol-2-ylamino)-4-(2-chlorophenyl)-N-(5-(hydroxymethyl)thiazol-2-yl)-6-methyl-1,4-dihydropyrimidine-5-carboxamide]: the IC50 was found to be 19.3 µM on recombinant mouse GALK1 (setting [3]), 19.3 µM at recombinant mouse GALK1 (setting [4]), 12.2 µM at recombinant human GALK1 (setting [5]) and 12.2 µM at recombinant human GALK1 (setting [6]). In addition, the “Perm. (1 × 10^−6 cm/sec)” value in “PAMPA permeability” was 161.4 1 × 10^−6 cm/sec. Also, the “Metab. Stabil. (m)” value in series [1] was above 30 m. In addition, in series [2], the “Sol.” value is below 1 µg/mL.
Turning to `CC1=C(C(=O)Nc2cccc(C(=O)O)n2)C(c2ccccc2Cl)N=C(Nc2nc3ccccc3o2)N1` (centres unmarked) [Compound 195, 6-(2-(benzo[d]oxazol-2-ylamino)-4-(2-chlorophenyl)-6-methyl-1,4-dihydropyrimidine-5-carboxamido)picolinic acid], the IC50 was determined as 6.85 µM on recombinant mouse GALK1 (setting [3]), 6.85 µM on recombinant mouse GALK1 (setting [4]), 4.32 µM on recombinant human GALK1 (setting [5]) and 4.32 µM on recombinant human GALK1 (setting [6]). In addition, in “PAMPA permeability”, the “Perm. (1 × 10^−6 cm/sec)” value is listed as <1 1 × 10^−6 cm/sec. Moreover, the “Metab. Stabil. (m)” value in series [1] is recorded as above 30 m. Moreover, in series [2], the “Sol.” value was 60.0 µg/mL.
With `COC(=O)c1ccnc(NC(=O)C2=C(C)NC(Nc3nc4ccccc4o3)=NC2c2ccccc2Cl)c1` (centres unmarked) [Compound 196, methyl 2-(2-(benzo[d]oxazol-2-ylamino)-4-(2-chlorophenyl)-6-methyl-1,4-dihydropyrimidine-5-carboxamido)isonicotinate], the IC50 at recombinant mouse GALK1 (setting [3]) was found to be 5.44 µM; at recombinant mouse GALK1 (setting [4]), 5.44 µM; at recombinant human GALK1 (setting [5]) it was 2.73 µM; on recombinant human GALK1 (setting [6]) it was 2.73 µM. The “Perm. (1 × 10^−6 cm/sec)” value in the series “PAMPA permeability” is recorded as 27.7 1 × 10^−6 cm/sec. Moreover, in series [1], the “Metab. Stabil. (m)” value was 18.44 m. In series [2], the “Sol.” value is below 1 µg/mL.
For `COC(=O)c1cccc(NC(=O)C2=C(C)NC(Nc3nc4ccccc4o3)=NC2c2ccccc2Cl)n1` (centres unmarked) [Compound 197], the IC50 on recombinant mouse GALK1 (setting [3]) turned out to be 12.2 µM; on recombinant mouse GALK1 (setting [4]), 12.2 µM; at recombinant human GALK1 (setting [5]), 9.68 µM; on recombinant human GALK1 (setting [6]) it was 9.68 µM. Besides, in “PAMPA permeability”, the “Perm. (1 × 10^−6 cm/sec)” value was 18.9 1 × 10^−6 cm/sec. For the same compound, the “Metab. Stabil. (m)” value in series [1] was above 30 m. For the same compound, the “Sol.” value in series [2] was below 1 µg/mL.
For `CC1=C(C(=O)Nc2nc(CO)cs2)C(c2ccccc2Cl)N=C(Nc2nc3ccccc3o2)N1` (centres unmarked) [Compound 198, 2-(benzo[d]oxazol-2-ylamino)-4-(2-chlorophenyl)-N-(4-(hydroxymethyl)thiazol-2-yl)-6-methyl-1,4-dihydropyrimidine-5-carboxamide], the IC50 at recombinant mouse GALK1 (setting [3]) is 19.3 µM; on recombinant mouse GALK1 (setting [4]) it was 19.3 µM; on recombinant human GALK1 (setting [5]), 17.2 µM; on recombinant human GALK1 (setting [6]) it was 17.2 µM. For the same compound, the “Perm. (1 × 10^−6 cm/sec)” value in the series “PAMPA permeability” was 59.9 1 × 10^−6 cm/sec. The “Metab. Stabil. (m)” value in series [1] is given as above 30 m. The “Sol.” value in series [2] is below 1 µg/mL.
On to `CC1=C(C(=O)Nc2ccnc(C(=O)O)c2)C(c2ccccc2Cl)N=C(Nc2nc3ccccc3o2)N1` (centres unmarked) [Compound 203, 4-(2-(benzo[d]oxazol-2-ylamino)-4-(2-chlorophenyl)-6-methyl-1,4-dihydropyrimidine-5-carboxamido)picolinic acid], for which the IC50 at recombinant mouse GALK1 (setting [3]) turned out to be 3.06 µM; at recombinant mouse GALK1 (setting [4]), 3.06 µM; at recombinant human GALK1 (setting [6]) it was 3.43 µM. For the same compound, the “Perm. (1 × 10^−6 cm/sec)” value in “PAMPA permeability” was <1 1 × 10^−6 cm/sec. Also, the “Metab. Stabil. (m)” value in series [1] is given as above 30 m. In addition, in series [2], the “Sol.” value was above 74 µg/mL.
As for `COC(=O)c1cc(NC(=O)C2=C(C)NC(Nc3nc4ccccc4o3)=NC2c2ccccc2Cl)ccn1` (centres unmarked) [Compound 204, methyl 4-(2-(benzo[d]oxazol-2-ylamino)-4-(2-chlorophenyl)-6-methyl-1,4-dihydropyrimidine-5-carboxamido)picolinate], the IC50 is 10.9 µM on recombinant mouse GALK1 (setting [3]), 10.9 µM on recombinant mouse GALK1 (setting [4]), 7.69 µM on recombinant human GALK1 (setting [5]) and 7.69 µM on recombinant human GALK1 (setting [6]). For the same compound, in the series “PAMPA permeability”, the “Perm. (1 × 10^−6 cm/sec)” value is reported as 49.2 1 × 10^−6 cm/sec. For the same compound, the “Metab. Stabil. (m)” value in series [1] is recorded as above 30 m. In addition, the “Sol.” value in series [2] was below 1 µg/mL.
As for `COC(=O)c1ccnc(NC(=O)C2=C(C)NC(Nc3nc4ccccc4o3)=N[C@H]2c2ccccc2Cl)c1` [Compound 206, (R)-methyl 2-(2-(benzo[d]oxazol-2-ylamino)-4-(2-chlorophenyl)-6-methyl-1,4-dihydropyrimidine-5-carboxamido)isonicotinate], the IC50 at recombinant mouse GALK1 (setting [4]) was determined as 6.85 µM; at recombinant human GALK1 (setting [6]), 3.43 µM. The “Perm. (1 × 10^−6 cm/sec)” value in the series “PAMPA permeability” is given as 306.7 1 × 10^−6 cm/sec. In addition, the “Metab. Stabil. (m)” value in series [1] amounted to 19.99 m. For the same compound, the “Sol.” value in series [2] was below 1 µg/mL.
Take `COC(=O)c1ccnc(NC(=O)C2=C(C)NC(Nc3nc4ccccc4o3)=N[C@@H]2c2ccccc2Cl)c1` [Compound 207, (S)-methyl 2-(2-(benzo[d]oxazol-2-ylamino)-4-(2-chlorophenyl)-6-methyl-1,4-dihydropyrimidine-5-carboxamido)isonicotinate]: the “mGALK (μM)” value on recombinant mouse GALK1 (recombinant mouse GALK1, Kinase-Glo Plus ATP depletion) is on record as “in- active”. The “hGALK (μM)” value at recombinant human GALK1 (recombinant human GALK1, Kinase-Glo Plus ATP depletion) is “in- active”. Further, the “Perm. (1 × 10^−6 cm/sec)” value in “PAMPA permeability” is recorded as 250.4 1 × 10^−6 cm/sec. Also, the “Metab. Stabil. (m)” value in series [1] is listed as 25.55 m. Moreover, the “Sol.” value in series [2] was below 1 µg/mL.
In the case of `CC1=C(C(=O)Nc2cc(C(=O)O)ccn2)[C@H](c2ccccc2Cl)N=C(Nc2nc3ccccc3o2)N1` [Compound 208, (R)-2-(2-(benzo[d]oxazol-2-ylamino)-4-(2-chlorophenyl)-6-methyl-1,4-dihydropyrimidine-5-carboxamido)isonicotinic acid], the IC50 at recombinant mouse GALK1 (setting [3]) stood at 3.43 µM; on recombinant mouse GALK1 (setting [4]) it was 3.43 µM; at recombinant human GALK1 (setting [5]), 0.54 µM; on recombinant human GALK1 (setting [6]), 0.54 µM. The “Perm. (1 × 10^−6 cm/sec)” value in the series “PAMPA permeability” is on record as <1 1 × 10^−6 cm/sec. Also, in series [1], the “Metab. Stabil. (m)” value is above 30 m. Besides, the “Sol.” value in series [2] is above 74 µg/mL.
Consider `CC1=C(C(=O)Nc2cc(C(=O)O)ccn2)[C@@H](c2ccccc2Cl)N=C(Nc2nc3ccccc3o2)N1` [Compound 209, (S)-2-(2-(benzo[d]oxazol-2-ylamino)-4-(2-chlorophenyl)-6-methyl-1,4-dihydropyrimidine-5-carboxamido)isonicotinic acid], for which the IC50 at recombinant mouse GALK1 (setting [3]) is 19.3 µM; at recombinant mouse GALK1 (setting [4]), 19.3 µM; at recombinant human GALK1 (setting [5]) it was 12.2 µM; on recombinant human GALK1 (setting [6]) it was 12.2 µM. In addition, in the series “PAMPA permeability”, the “Perm. (1 × 10^−6 cm/sec)” value is recorded as <1 1 × 10^−6 cm/sec. For the same compound, in series [1], the “Metab. Stabil. (m)” value is given as above 30 m. In addition, the “Sol.” value in series [2] was above 74 µg/mL.
Turning to `CC1=C(C(=O)Nc2cc(C(=O)O)ccc2F)C(c2ccccc2Cl)N=C(Nc2nc3ccccc3o2)N1` (centres unmarked) [Compound 210, 3-(2-(benzo[d]oxazol-2-ylamino)-4-(2-chlorophenyl)-6-methyl-1,4-dihydropyrimidine-5-carboxamido)-4-fluorobenzoic acid], the IC50 came out at 10.9 µM at recombinant mouse GALK1 (setting [4]) and 3.06 µM on recombinant human GALK1 (setting [6]). Further, the “Perm. (1 × 10^−6 cm/sec)” value in “PAMPA permeability” was 3.3 1 × 10^−6 cm/sec. The “Metab. Stabil. (m)” value in series [1] is above 30 m. In addition, the “Sol.” value in series [2] came out at 25.4 µg/mL.
For `CC1=C(C(=O)Nc2cc(CO)ccn2)C(c2ccccc2Cl)N=C(Nc2nc3ccccc3o2)N1` (centres unmarked) [Compound 211, 2-(benzo[d]oxazol-2-ylamino)-4-(2-chlorophenyl)-N-(4-(hydroxymethyl)pyridin-2-yl)-6-methyl-1,4-dihydropyrimidine-5-carboxamide], the IC50 turned out to be 9.68 µM on recombinant mouse GALK1 (setting [3]), 9.68 µM at recombinant mouse GALK1 (setting [4]), 3.06 µM at recombinant human GALK1 (setting [5]) and 3.06 µM on recombinant human GALK1 (setting [6]). Also, the “Perm. (1 × 10^−6 cm/sec)” value in “PAMPA permeability” is on record as 109.6 1 × 10^−6 cm/sec. For the same compound, the “Metab. Stabil. (m)” value in series [1] was above 30 m. Besides, in series [2], the “Sol.” value was below 1 µg/mL.
`CC1=C(C(=O)Nc2cc(C(N)=O)ccn2)C(c2ccccc2Cl)N=C(Nc2nc3ccccc3o2)N1` (centres unmarked) [Compound 212, 2-(benzo[d]oxazol-2-ylamino)-N-(4-carbamoylpyridin-2-yl)-4-(2-chlorophenyl)-6-methyl-1,4-dihydropyrimidine-5-carboxamide]: the IC50 on recombinant mouse GALK1 (setting [3]) was 7.69 µM; on recombinant mouse GALK1 (setting [4]), 7.69 µM; on recombinant human GALK1 (setting [5]), 2.43 µM; at recombinant human GALK1 (setting [6]), 2.43 µM. Also, the “Perm. (1 × 10^−6 cm/sec)” value in the series “PAMPA permeability” is on record as 156.0 1 × 10^−6 cm/sec. Moreover, in series [1], the “Metab. Stabil. (m)” value is recorded as above 30 m. The “Sol.” value in series [2] was below 1 µg/mL.
